Results reported in US20100197603A1, “USE OF RGDSPASSKP AND OPTIONALLY ANGIOTENSIN II AS THERAPEUTIC AGENTS IN THE TREATMENT OF EG S. PNEUMONIAE INFECTIONS” (priority 2007, published 2010).
Where no end group is shown, it is not given here.

How the values were obtained:
[1] = test system: HIV-1IIIB; assay: HIV-1 antiviral assay in CEM-SS cells (MTS readout)
[2] = test system: HCMV strain AD169; assay: HCMV plaque formation assay in MRC-5 cells; conditions: for inhibition of HCMV plaque formation as compared to the virus control: 10 micrograms per ml, 7-10 days
[3] = test system: HUVEC; assay: Endothelial tube formation assay; format: cell-based, human; conditions: 10 micrograms per ml, 20 hours
[4] = test system: Primary Human endothelial cells (HUVEC); assay: Endothelial cell migration assay; format: cell-based; conditions: 10 micrograms per ml, 22 hours
[5] = test system: Streptococcus pneumoniae; assay: Streptococcus pneumoniae growth assay; format: cell-based; conditions: 10 micrograms per ml; 5×10^5 CFU/mL; read visually
[6] = test system: hepatitis B virus (HBV) ayw strain; assay: HBV experimental assay system (HepG2-2.2.15, TaqMan PCR of secreted HBV DNA); format: cell-based; conditions: 10 micrograms per ml, six days, HBV DNA by TaqMan PCR
Excerpt: HepG2-2.2.15 is a stable cell line containing the hepatitis B virus (HBV) ayw strain genome (ATCC Cat. No. CRL-11997). Antiviral compounds blocking any late step of viral replication such as transcription, translation, pregenome encapsidation, reverse transcription, particle assembly and release can be identified and characterized using this cell line. In this assay, an active compound will reduce the production of secreted HBV from cells, measured by utilizing real time quantitative PCR (TaqMan) assay to directly and accurately measure HBV DNA copies.
HepG2-2.2.15 cells were plated in 96-well microtiter plates. After 16-24 hours the confluent monolayer of HepG2-2.2.15 cells was washed and the medium was replaced with complete medium containing test peptides—10 micrograms per ml—in duplicate. […] Six days following the initial administration of the peptides, the cell culture supernatants was collected, treated with pronase and DNAse and then used in a real-time quantitative TaqMan PCR assay. The PCR-amplified HBV DNA was detected in real-time by monitoring increases in fluorescence signals that result from the exonucleolytic degradation of a quenched fluorescence probe molecule that hybridizes to the amplified HBV DNA. […] Antiviral activity was calculated from the reduction in HBV DNA levels (% virus control). […]

[7] = test system: murine spleen cells; assay: Th1/Th2 cytokine profiling assay (Ovalbumin-restimulated spleen cells, CBA kit); format: cell-based, Balb/c mice; conditions: 10 micrograms per ml, Ovalbumin restimulation, 72 hours

| Compound | antiviral activity of positive control compounds (HIV-1) [1] | antiviral activity of positive control compound (HCMV) ([2]; positive control) | inhibition of the tube formation of human endothelial cells [3] [%] | inhibition of the migration of human endothelial cells [4] [%] | inhibition of HCMV plaque formation as compared to the virus control [2] | inhibition of the growth of Streptococcus pneumoniae [5] [%] | inhibition of HBV replication as compared to the virus control infection [6] [%] | change of the production of IL-5 [7] | induction of the production of IFN-γ [7] [%] | induction of the production of IL-2 [7] | induction of the production of IL-4 [7] [%] | induction of the production of TNF-alpha [7] |
| --- | --- | --- | --- | --- | --- | --- | --- | --- | --- | --- | --- | --- |
| Cc1cn([C@H]2C[C@H](N=[N+]=[N-])[C@@H](CO)O2)c(=O)[nH]c1=O [AZT] | expected levels of antiviral activity |  |  |  |  |  |  |  |  |  |  |  |
| Nc1nc(O)c2ncn(COC(CO)CO)c2n1 [Ganciclovir, reference compound] |  | expected levels of antiviral activity |  |  |  |  |  |  |  |  |  |  |
| CC(C)(C)NC(=O)[C@@H]1CN(Cc2cccnc2)CCN1C[C@@H](O)C[C@@H](Cc1ccccc1)C(=O)N[C@H]1c2ccccc2C[C@H]1O [indinavir] | expected levels of antiviral activity |  |  |  |  |  |  |  |  |  |  |  |
| Arg-Gly-Asp-Ser-Pro-Ala-Ser-Ser-Lys-Pro-OH (RGDSPASSKP-OH) [Peptide 1] |  |  | 54 | 2 | did not inhibit | 100 | 57.8 | did not significantly change | 24.5 | 134.2% | 132.5 | 34.0% |
| Asp-Arg-Val-Tyr-Ile-His-Pro-Phe-OH (DRVYIHPF-OH) [Peptide 2] |  |  |  | 10 | did not inhibit | 100 | 43.4 | did not significantly change | 36.4 | did not significantly change | 55 | did not significantly change |
